# Measured values published in patent publication US7462598B2, “Antimicrobial theta defensins, analogs thereof, and methods of use” (priority 2002, dated 2008).
# Bridge positions count the residues as written; N and C are the ends. Peptide text beside a SMILES is read from it.
# What was measured:
# [1] = tested on: S. aureus 502a; format: cell-based, Staphylococcus aureus; details: 10% normal human serum; FIG. 7
# Experimental: Dose-dependent staphylocidal activity of each peptide was determined in assays containing 10% normal human serum. Percentages of killing are relative to activities of peptide-containing incubations in which serum was omitted.
# To determine the effects of serum, salt, calcium chloride and magnesium chloride on microbicidal activities, peptide activities were determined in assays containing varying ionic strength, divalent cations, and serum. The effect of serum on staphylocidal activity of each peptide was determined by incubating 1×10^6 CFU/ml of S. aureus 502a with increasing peptide concentrations (0.5-4 μg/ml) in 10 mM PIPES, pH 7.4, containing 10% normal human serum for 2 h at 37° C. The effect of sodium chloride on staphylocidal activities was assessed with 5 μg/ml of each peptide in 10 mM PIPES, pH 7.4, containing varying concentrations of sodium chloride (0-160 mM). Effects of divalent cations, CaCl2, or MgCl2 (0-5.6 mM) were assessed in microbicidal assays against E. coli ML35. Bactericidal activities were determined by colony counting (see Example II), and microbicidal potencies were expressed as percent killing as follows:
# [formula] where A=surviving bacteria (CFU/ml) after initial incubation with each peptide in buffer containing serum, salt, or divalent cations and Ao=bacterial CFU/ml in the “no-peptide” controls.
# [2] = tested on: S. aureus 502a; assay: Cell-suspension microbicidal assay (MMC); format: cell-based, Staphylococcus aureus; details: lowest concentration that reduced cell viability by 99.9%; 10 mM PIPES, 5 mM glucose, pH 7.4; 2 h 37° C.
# Experimental: (§1) To test microbicidal activities, the activities of each peptide against S. aureus 502a, E. coli ML35, and C. albicans 16820 were assessed essentially as described in Example I with modifications to allow for simultaneous analysis of all twenty peptides. Briefly, two-fold serial dilutions of each peptide (in 0.01% acetic acid 0.062-8.0 μg/ml final concentrations) were mixed with 10 mM PIPES, pH 7.4, containing 5 mM glucose in sterile polystyrene 96-well plates (Corning, N.Y.). Aliquots of log-phase bacteria or yeast were added to a 2×10^6 CFU/ml final density as determined by A620. After 2 h incubation at 37° C., 15 μl of the incubation mixture was removed and serially diluted ten-fold from 1:10 to 1:10^6 in trypticase soy broth (bacteria) or Sabaraud dextrose broth (C. albicans). The diluted cell suspensions were grown 24-48 h at 37° C. until cell pellets were visible. Microbicidal activity was determined as absence of growth and was correlated to CFU/ml in control experiments where activity was determined in parallel by colony counting (see Example I). Absence of growth at the 1:10^3 dilution is equivalent to a 3-log reduction in microbial viability.
# (§2) The microbicidal activities of each peptide against E. coli ML35, S. aureus 502a, and C. albicans 16820 were determined with cell-suspension microbicidal assays in 96-well plates (see Example II). Briefly, log-phase cells (2×10^6 CFU/ml final) were incubated with increasing concentrations of peptides (0-8 μg/ml final) in 50 μl of 10 mM PIPES, 5 mM glucose, pH 7.4, for 2 h at 37° C. Incubation mixtures were diluted 1:10 to 1:10^6 with trypticase-soy broth (bacteria) or Sabaraud dextrose broth (fungi) and incubated at 37° C. for 24-48 h until cell pellets were visible. Microbicidal activities (confirmed in control experiments as described in Example II) were determined as the absence of a cell pellet in the various dilutions. Peptide concentrations that caused ≧99.9% killing (absence of a cell pellet at 1:10^3 dilution) were taken as the minimum microbicidal concentrations (MMC).
# [3] = tested on: S. aureus 502a, E. coli ML35, and C. albicans 16820; assay: Cell-suspension microbicidal assay, statements across the test organisms (lowest MMC, overall ranges); format: cell-based; details: peptide concentration that kill 99.9% of either S. aureus, E. coli, or C. albicans; lowest MMC value
# Experimental: as §1, §2
# (§3) A selectivity index (SI=H/M) was calculated as a ratio of a peptide concentration (μg/ml) that causes 3% hemolysis (H) obtained from a dose-dependent hemolysis plot over 0.3 to 3 μg/ml of each peptide in PBS and the lowest MMC value (M) for any of the three test microorganisms (see Example II; Table 2).
# [4] = tested on: E. coli ML35; assay: Membrane permeabilization assay (ONPG hydrolysis); format: cell-based, Escherichia coli; details: rates at 1 μg/ml concentration of each peptide
# Experimental: For the membrane permeabilization assay, the permeabilization of bacterial cytoplasmic membranes was determined by measuring hydrolysis of o-nitrophenyl-β-D-galactcpyranoside (ONPG) in E. coli ML35 (Sitaram et al., FEBS Lett. 303:265-268 (1992); Lehrer et al.,. J. Immunol. Methods 108:153-158 (1988)). Peptides dissolved in 5 μl of 0.01% acetic acid were two-fold serially diluted with 10 mM PIPES, pH 7.4, containing 3 mM ONPG, to final peptide concentrations of 0-8.0 μg/ml. Log-phase bacteria, prepared in PIPES buffer as described for the microbicidal assay (see Example I), were added to 1×10^6 CFU/ml final density in a final volume of 90 μl. ONPG hydrolysis was measured at 405 nm for 60 min using a SpectraMAX 190 plate reader and SOFTmaxPRO 3.1 (Molecular Devices Corp., CA). […]
# [5] = tested on: C. albicans 16820; assay: Cell-suspension microbicidal assay (MMC); format: cell-based, Candida albicans; details: lowest concentration that reduced cell viability by 99.9%; 10 mM PIPES, 5 mM glucose, pH 7.4; 2 h 37° C.
# Experimental: as §1, §2
# [6] = tested on: E. coli ML35; assay: Cell-suspension microbicidal assay (MMC); format: cell-based, Escherichia coli; details: lowest concentration that reduced cell viability by 99.9%; 10 mM PIPES, 5 mM glucose, pH 7.4; 2 h 37° C.
# Experimental: as §1, §2
# [7] = tested on: human erythrocytes; assay: Hemolysis assay; format: cell-based; details: peptide concentration that causes 3% hemolysis, calculated from dose-dependent hemolysis plot over 0.3-3 μg/ml in PBS
# Experimental: For the hemolysis assay, the hemolytic activity of each peptide was determined by the method of Tam et al. (Tam et al., Eur. J. Biochem. 267:3289-3300 (2000)). Blood was obtained from a healthy donor in accordance to a protocol approved by the Institutional Review Board. Normal human serum was prepared from the same individual and stored at −20° C. Red blood cells (RBC) were prepared from blood collected in EDTA. RBC were harvested at 234×g for 10 min, 22° C., washed four times with 10 mM sodium phosphate, 150 mM NaCl, pH 7.4 (PBS), containing 4 mM EDTA and resuspended in PBS without EDTA. Peptides dissolved in 10 μl 0.01% HOAc were diluted with PBS to final concentrations of 0.3-100 μg/ml. RBC were added to a 2% final density in 100 μl. Incubation mixtures were also prepared with 10% serum. After 1 h incubation at 37° C., the cell suspensions were centrifuged at 234×g for 10 min, 22° C. Fifty-μl samples of the supernatants were removed, and the absorbance at 405 nm (A) was measured. Hemolytic activity of each peptide was calculated relative to lysis by 1% NP-40 using the following formula:
# as §3
# [8] = tested on: white blood cells; assay: Cytokine-antibody array of supernatants of white blood cells (ex vivo LPS model); format: cell-based; details: 18 h, relative to control supernatants
# Experimental: The anti-inflammatory properties of RTD-1 were evaluated by determining the relative levels of cytokines produced by stimulated white blood cells. Blood was obtained from healthy donors in accordance with institutional guidelines. Serum was prepared from the same donor following coagulation and high-speed centrifugation (12,000-15,000 ×g). White blood cells, (WBC) were prepared from EDTA anti-coagulated blood using an established protocol. WBC were suspended in RPMI 1640 (Gibco; Invitrogen, Carlsbad Calif.) containing 10% FBS and 1% autologous serum. Aliquots containing 2×10^6 cells were added to each well of a sterile 12-well plate, and cells were allowed to incubate for 18 h at 37° C. in a humidified incubator with 5% carbon dioxide. […] Cell-free supernatants were collected by centrifugation at 12,000×g and incubated with cytokine-antibody arrays per the manufacturer's protocol (RayBiotech; Norcross Ga.). The cytokines on each array were visualized with a chemi-luminescent kit (Pierce; Rockford Ill.) and enumerated by spot density analysis with ChemiImager 5.5 (Alpha Innotech; San Leandro Calif.).
# [9] = LPS (100 ng/ml) + RTD-1 (100 ng/ml)
compound,measurement,setting,value
"CC(C)C[C@H](NC(=O)[C@H](CCCNC(=N)N)NC(=O)CNC(=O)CNC(=O)[C@@H](N)CCCNC(=N)N)C(=O)N[C@H]1CSSC[C@@H](C(=O)N[C@H](C(=O)NCC(=O)N[C@@H](CCCNC(=N)N)C(N)=O)C(C)C)NC(=O)[C@H](C(C)C)NC(=O)[C@@H]2CSSC[C@H](NC(=O)[C@H](Cc3ccc(O)cc3)NC1=O)C(=O)N[C@@H](CCCNC(=N)N)C(=O)N[C@@H](CCCNC(=N)N)C(=O)N[C@@H](CCCNC(=N)N)C(=O)N[C@@H](Cc1ccccc1)C(=O)N2 [PG-1, reference compound]",staphylocidal activity in assay containing serum (in words),[1],unaffected
same,"MMC, S. aureus",[2],0.4 µg/mL
same,M,[3],0.38 µg/mL
same,ONPG hydrolysis,[4],11.3 (A405/sec) · 10^−5
same,"MMC, C. albicans",[5],0.8 µg/mL
"CC[C@H](C)[C@@H]1NC(=O)[C@@H]2CSSC[C@H](NC(=O)[C@H](CCCNC(=N)N)NC(=O)[C@@H]3CSSC[C@H](NC1=O)C(=O)N[C@@H]([C@@H](C)O)C(=O)N[C@@H](CCCNC(=N)N)C(=O)NCC(=O)N[C@@H](Cc1ccccc1)C(=O)N3)C(=O)N[C@@H](CC(C)C)C(=O)N[C@H]1CSSC[C@H](NC(=O)[C@H](C(C)C)NC(=O)CNC(=O)[C@H](CCCNC(=N)N)NC(=O)[C@H](CCCNC(=N)N)NC1=O)C(=O)N[C@@H](CCCNC(=N)N)C(=O)N2 [RTD-1] (cyclo(GFCRCLCRRGVCRCICTR); disulfide 3-16, 5-14, 7-12)","MMC, E. coli",[6],2.0 µg/mL
same,"MMC, S. aureus",[2],1.0 µg/mL
same,H,[7],5.5 µg/mL
same,M,[3],1 µg/mL
same,ONPG hydrolysis,[4],9.0 (A405/sec) · 10^−5
same,ENA-78 fold increase,[8]; [9],10 fold
same,GCSF fold increase,[8]; [9],1 fold
same,GM-CSF fold increase,[8]; [9],1 fold
same,GRO fold increase,[8]; [9],19 fold
same,IFN-γ fold increase,[8]; [9],60 fold
same,IL-1β fold increase,[8]; [9],118 fold
same,IL-2 fold increase,[8]; [9],1 fold
same,IL-5 fold increase,[8]; [9],118 fold
same,IL-6 fold increase,[8]; [9],2 fold
same,IL-7 fold increase,[8]; [9],1 fold
same,IL-10 fold increase,[8]; [9],2 fold
same,MCP-2 fold increase,[8]; [9],4 fold
same,MCSF fold increase,[8]; [9],1 fold
same,MDC fold increase,[8]; [9],4 fold
same,MIP-1-δ fold increase,[8]; [9],1 fold
same,RANTES fold increase,[8]; [9],237 fold
same,SCF fold increase,[8]; [9],1 fold
same,SDF-1 fold increase,[8]; [9],178 fold
same,TARC fold increase,[8]; [9],60 fold
same,TGF-β1 fold increase,[8]; [9],1 fold
same,TNF-α fold increase,[8]; [9],1 fold
same,ENA-78 fold increase,"[8]; stimulus alone, 100 ng/ml",1 fold
same,GCSF fold increase,"[8]; stimulus alone, 100 ng/ml",1 fold
same,GM-CSF fold increase,"[8]; stimulus alone, 100 ng/ml",1 fold
same,GRO fold increase,"[8]; stimulus alone, 100 ng/ml",4 fold
same,IFN-γ fold increase,"[8]; stimulus alone, 100 ng/ml",1 fold
same,IL-1β fold increase,"[8]; stimulus alone, 100 ng/ml",178 fold
same,IL-2 fold increase,"[8]; stimulus alone, 100 ng/ml",1 fold
same,IL-5 fold increase,"[8]; stimulus alone, 100 ng/ml",60 fold
same,IL-6 fold increase,"[8]; stimulus alone, 100 ng/ml",2 fold
same,IL-7 fold increase,"[8]; stimulus alone, 100 ng/ml",1 fold
same,IL-10 fold increase,"[8]; stimulus alone, 100 ng/ml",1 fold
same,MCP-2 fold increase,"[8]; stimulus alone, 100 ng/ml",2 fold
same,MCSF fold increase,"[8]; stimulus alone, 100 ng/ml",60 fold
same,MDC fold increase,"[8]; stimulus alone, 100 ng/ml",2 fold
same,MIP-1-δ fold increase,"[8]; stimulus alone, 100 ng/ml",1 fold
same,RANTES fold increase,"[8]; stimulus alone, 100 ng/ml",1 fold
same,SCF fold increase,"[8]; stimulus alone, 100 ng/ml",1 fold
same,SDF-1 fold increase,"[8]; stimulus alone, 100 ng/ml",1 fold
same,TARC fold increase,"[8]; stimulus alone, 100 ng/ml",1 fold
same,TGF-β1 fold increase,"[8]; stimulus alone, 100 ng/ml",1 fold
same,TNF-α fold increase,"[8]; stimulus alone, 100 ng/ml",1 fold
same,"MMC, C. albicans",[5],1.0 µg/mL
